Holding throughout (type): in vivo, adult patients
For data set [1], the system named is persistent allergic rhinitis. In words: Clinical study in persistent allergic rhinitis: Total 5 Symptoms Score (T5SS). From the text:
(§1) For clinical symptoms, it was considered that a 1 point score reduction is clinically relevant. For health-related quality of life, it was considered that a 0.36 point score reduction is relevant. Secondary parameters of efficacy included different durations of treatment, different symptoms, different quality of life questionnaires, the incidence of co-morbidities suspected to be linked to allergic rhinitis and pharmaco-economic variables.
(§2) The target population of this example consisted of adults aged more than 18 years suffering from persistent allergic rhinitis [WHO Initiative on Allergic Rhinitis and its Impact on Asthma (ARIA), 2000, pages S147-S149]. To be enrolled, the subjects needed to have sufficient rhinitis symptoms during the selection period. Excluded were patients with ENT or eye infection during the 2-weeks preceding initial visit.
(§3) The study was a prospective, randomized, double blind, parallel group, and placebo-controlled study with levocetirizine dihydrochloride.
(§4) The severity of clinical symptoms was rated by the T5SS (sneezing, rhinorrhea, nasal pruritus, ocular pruritus and nasal congestion) evaluated each by a score from 0 to 3. The impact on health related quality of life was measured using the Rhinoconjunctivitis Quality of Life Questionnaire (RQLQ) (E. JUNIPER and G. H. GUYAIT, Development and testing of a new measure of health status for clinical trials in rhinoconjunctivitis, Clinical and Experimental Allergy 1991; 21:77-83; E. JUNIPER, Measuring Health Related Quality of Life in rhinitis, J. Allergy Clin. Immunol. 1997; 99:S742-9).
(§5) Study treatment lasted for 6 months. After the treatment period, patients entered a 1-week follow-up period.
(§6) The primary end-point for efficacy was a decrease of the T5SS over the first 4 weeks of at least 1 unit of score. The primary end-point for quality of life was a decrease of RQLQ after 4 weeks of at least 0.36 unit of the total score.
(§7) Secondary parameters of efficacy included the mean T5SS, the RQLQ and the SF-36 questionnaire at the different time points of the study, and the incidence and the duration of rescue medication over 6 months.
(§8) Oral tablets of levocetirizine dihydrochloride (5 mg) and matching placebo, similar in appearance, shape and taste were used. The recommended study dosage was 1 tablet per day.

The subject of data set [2] is persistent allergic rhinitis. In words: Clinical study in persistent allergic rhinitis: Rhinoconjunctivitis Quality of Life Questionnaire (RQLQ).
Excerpt: as §1, §2, §3, §4, §5, §6, §7, §8
Sample size was based on 40% relative improvement over placebo in the RQLQ questionnaire, assuming an improvement from baseline for placebo of 0.9. For this questionnaire this corresponds to a difference of 0.36 vs. placebo.

Data set [3] concerns persistent allergic rhinitis. In words: Clinical study in persistent allergic rhinitis: individual rhinitis symptom scores (nasal congestion, sneezing, rhinorrhea, nasal pruritus, ocular pruritus). Conditions: for Effect on nasal congestion / nasal obstruction (in words): long term treatment.
Excerpt: as §1, §2, §3, §4, §5
Exploratory parameters of efficacy included the mean of each individual rhinitis score, each RQLQ domain and each scale of the SF-36 questionnaire at the different time points of the study, the Global Evaluation Scale after 4 weeks and 6 months, the incidence of co-morbidities suspected to be linked to allergic rhinitis and the pharmaco-economic direct and indirect costs over 6 months.
as §8

Data set [4] has as its system persistent allergic rhinitis. In words: Clinical study in persistent allergic rhinitis: safety of long-term treatment. The settings on record: 5 mg once per day; 6 month treatment. From the text:
The aim of the study relative to the clinical effect of levocetirizine dihydrochloride was to establish on the intention to treat (ITT population) whether a 6 month levocetirizine dihydrochloride treatment can improve the quality of life and clinical symptoms from adult patients suffering from persistent allergic rhinitis, when compared to placebo. For clinical symptoms, it was considered that a 1 point score reduction is clinically relevant. For health-related quality of life, it was considered that a 0.36 point score reduction is relevant. Secondary parameters of efficacy included different durations of treatment, different symptoms, different quality of life questionnaires, the incidence of co-morbidities suspected to be linked to allergic rhinitis and pharmaco-economic variables. The safety of this long-term treatment with levocetirizine dihydrochloride has also been evaluated.
At each of the eight visits, diary book entries (T5SS, RQLQ, SF-36, indirect cost pharmaco-economic parameters, concomitant medication, outpatient consultations and adverse events) were verified and transferred into the Clinical Record Form and direct cost pharmaco-economic parameters were recorded. Patients underwent a physical examination, including the measurement of vital signs. […]
Adverse events were recorded by the patients on diary cards and discussed with the investigator at each visit. […]

The mark [5] stands for this setting: 5 mg once per day, 6 month treatment.
[6] abbreviates: 5 mg oral tablet once per day, over the first four weeks of treatment, ITT population.
Setting [7] is: 5 mg oral tablet once per day, after first 4 weeks of treatment, ITT population.
Where [8] appears, read: 5 mg, 3 months, evaluated over the 24 hours, ITT population.
The mark [9] stands for this setting: 5 mg, 4.5 months, evaluated over the 24 hours, ITT population.
Setting [10] is: 5 mg, 6 months, evaluated over the 24 hours, ITT population.
The mark [11] stands for this setting: 5 mg, First 4 weeks, evaluated over the 24 hours, ITT population.
Setting [12] is: 5 mg, Week 1, evaluated over the 24 hours, ITT population.

Structures can show the parent of a compound that is named as a salt.

Take `O=C(O)COCCN1CCN([C@H](c2ccccc2)c2ccc(Cl)cc2)CC1` [Lctz, levocetirizine dihydrochloride]: the “Duration of effect on rhinitis” value in data set [1] (setting [5]) is “has an effect on rhinitis up to 6 months”. For the same molecule, the “Tachyphylaxis (need to adjust the dosing schedule)” value in data set [1] (5 mg once per day, during 6 months) is given as “lack of tachyphylaxis”. Also, the “Mean T5SS, Adjusted mean (adjusted for baseline score and country)” value in data set [1] (setting [6]) stood at 5.43. In addition, the “Mean T5SS, Mean (SD)” value in data set [1] (setting [6]) is recorded as 5.53 (2.52). Besides, the “Mean T5SS, Diff. vs. placebo (95% CI), placebo minus Lctz 5 mg” value in data set [1] (5 mg oral tablet once per day, over the first four weeks of treatment, ITT population, dihydrochloride) came to 1.14. Besides, the “Duration of effect on quality of life” value in data set [2] (setting [5]) is on record as “has an effect on quality of life up to 6 months”. Further, the “Change from baseline of the RQLQ Overall Score, Adjusted Mean (adjusted for baseline score and country)” value in data set [2] (setting [7]) was −1.49. Further, the “Change from baseline of the RQLQ Overall Score, Mean” value in data set [2] (setting [7]) is −1.50. In addition, the “Change from baseline of the RQLQ Overall Score, Diff. vs. placebo (95% CI), placebo minus Lctz 5 mg” value in data set [2] (5 mg oral tablet once per day, after first 4 weeks of treatment, ITT population, dihydrochloride) was 0.48. In data set [3] (5 mg once per day, at all time points, vs. placebo), the “Improvement of sneezing, rhinorrhea, nasal pruritus and ocular pruritus” value is on record as “statistically significant improvement”. In addition, the “Effect on nasal congestion / nasal obstruction (in words)” value in data set [3] (5 mg once per day, listed as Levocetirizine, dihydrochloride) was “active on nasal obstruction after a long term treatment (equal or more than 3 months)”; in data set [3] (5 mg once per day, listed as levocetirizine dihydrochloride, dihydrochloride), “has an effect on nasal congestion after 3 months”. Besides, the “Nasal congestion symptoms, Adjusted Mean” value is reported as 1.16 in data set [3] (setting [8]); 1.11 in data set [3] (setting [9]); 1.08 in data set [3] (setting [10]); 1.40 in data set [3] (setting [11]); 1.58 in data set [3] (setting [12]). The “Nasal congestion symptoms, Mean (SD)” value in data set [3] (setting [8]) was 1.22 (0.78); in data set [3] (setting [9]), 1.17 (0.77); in data set [3] (setting [10]), 1.13 (0.76); in data set [3] (setting [11]), 1.44 (0.78); in data set [3] (setting [12]) it was 1.61 (0.83). Further, the “Nasal congestion symptoms, Diff. vs. (95% CI), placebo minus Lctz” value in data set [3] (5 mg, 3 months, evaluated over the 24 hours, ITT population, dihydrochloride) amounted to 0.15. In addition, the “Safety of long-term administration” value in data set [4] is “did not involve particular safety concerns”.
